The target in one test is CDK2 (UniProt P24941). The test can be described thus: Enzyme Assay.
Another test deals with EGFR (UniProt P00533).
Test [1] has as its target CDK2 (human) (UniProt P24941). The following applies: A431.
The target of test [2] is CDK2 (human) (UniProt P24941). The test can be described thus: Cell-Based Assay.

EGFR, sequence (P00533 whole entry, looked up): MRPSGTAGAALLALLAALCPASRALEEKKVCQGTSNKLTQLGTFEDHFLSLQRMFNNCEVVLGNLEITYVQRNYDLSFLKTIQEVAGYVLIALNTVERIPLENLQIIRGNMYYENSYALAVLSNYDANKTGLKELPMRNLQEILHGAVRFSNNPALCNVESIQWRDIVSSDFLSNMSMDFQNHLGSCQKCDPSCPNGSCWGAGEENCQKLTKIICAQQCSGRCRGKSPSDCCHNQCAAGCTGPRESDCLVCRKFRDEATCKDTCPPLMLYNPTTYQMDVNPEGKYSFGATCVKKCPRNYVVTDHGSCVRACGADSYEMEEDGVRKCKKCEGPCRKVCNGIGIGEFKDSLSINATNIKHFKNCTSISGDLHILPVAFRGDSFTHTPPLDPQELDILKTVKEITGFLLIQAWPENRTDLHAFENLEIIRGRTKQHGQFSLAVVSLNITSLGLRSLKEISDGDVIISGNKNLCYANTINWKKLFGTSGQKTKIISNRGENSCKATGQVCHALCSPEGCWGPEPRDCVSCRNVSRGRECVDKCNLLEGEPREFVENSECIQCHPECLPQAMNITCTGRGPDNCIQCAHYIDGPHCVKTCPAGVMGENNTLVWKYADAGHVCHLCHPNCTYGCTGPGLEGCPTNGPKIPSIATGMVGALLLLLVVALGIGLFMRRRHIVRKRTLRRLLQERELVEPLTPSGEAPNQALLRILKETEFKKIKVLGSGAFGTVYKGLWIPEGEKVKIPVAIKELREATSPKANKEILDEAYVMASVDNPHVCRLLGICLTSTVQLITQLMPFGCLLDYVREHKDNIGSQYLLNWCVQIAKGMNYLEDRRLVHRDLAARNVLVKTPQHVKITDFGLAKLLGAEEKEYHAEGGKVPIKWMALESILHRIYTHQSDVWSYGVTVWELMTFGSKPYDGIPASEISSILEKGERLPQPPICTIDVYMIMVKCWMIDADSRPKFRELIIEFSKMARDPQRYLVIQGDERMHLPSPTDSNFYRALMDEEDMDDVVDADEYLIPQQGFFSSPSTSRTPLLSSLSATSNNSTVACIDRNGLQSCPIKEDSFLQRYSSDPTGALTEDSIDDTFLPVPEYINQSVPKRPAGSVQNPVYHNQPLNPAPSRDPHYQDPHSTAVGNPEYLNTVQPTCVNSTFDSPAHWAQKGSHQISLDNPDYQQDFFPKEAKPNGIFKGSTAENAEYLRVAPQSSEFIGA

One may read the IC50 as the concentration needed to halve the response being measured. Read a high IC50 as weaker potency in that assay. By GI50 is commonly meant the concentration giving 50% growth inhibition. For `OCCN(CCO)c1nc(Nc2cccc(Br)c2)c2cn[nH]c2n1`, the concentration for half-maximal inhibition (IC50) against CDK2 came to 3.8 µM; against EGFR, 36.3 µM. Further, the GI50 in the test with CDK2 (human) [1] is more than 100 µM; with CDK2 (human) [2] (hct-116) it was more than 100 µM; with CDK2 (human) [2] (snu638) it was 38.9 µM.

Take `Cn1ncc2c(Nc3cccc(Br)c3)nc(NCCO)nc21`: the IC50 against CDK2 is more than 100 µM; on EGFR it was 47.9 µM. Further, the GI50 was 31.9 µM with CDK2 (human) [1], more than 100 µM with CDK2 (human) [2] (hct-116) and 18.2 µM in the test with CDK2 (human) [2] (snu638).

For `OCCNc1nc(NCc2ccccc2)c2cn[nH]c2n1`, the IC50 amounted to 29.5 µM against CDK2 and 93.3 µM against EGFR. Besides, the concentration for 50% growth inhibition (GI50) with CDK2 (human) [1] turned out to be 26.6 µM; with CDK2 (human) [2] (hct-116) it was 4.5 µM; with CDK2 (human) [2] (snu638), 20.8 µM.

In the case of `CC(C)n1ncc2c(NCc3ccc([N+](=O)[O-])cc3)nc(NCCO)nc21`, the results for the IC50 against CDK2 and at EGFR were 46.8 µM and more than 100 µM, respectively. The GI50 in the test with CDK2 (human) [1] worked out at 32 µM; with CDK2 (human) [2] (hct-116) it was 77.7 µM; with CDK2 (human) [2] (snu638), 23.4 µM.

As for `COc1cccc(Nc2nc(NCCO)nc3c2cnn3C)c1`, the IC50 against CDK2 and on EGFR was more than 100 µM each time. Also, the GI50 with CDK2 (human) [1] was determined as 19.1 µM; with CDK2 (human) [2] (hct-116), 90.4 µM; with CDK2 (human) [2] (snu638), 21.7 µM.

As to `CC(C)n1ncc2c(Nc3cccc(Br)c3)nc(NCCO)nc21`, the IC50 against CDK2 is 28.2 µM; at EGFR, more than 100 µM. Moreover, the GI50 with CDK2 (human) [1] was determined as 2.19 µM; with CDK2 (human) [2] (hct-116), 6.46 µM; with CDK2 (human) [2] (snu638), 4.28 µM.

For `COc1cccc(Nc2nc(N(CCO)CCO)nc3[nH]ncc23)c1`, the half-maximal inhibitory concentration (IC50) is 10.2 µM at CDK2 and more than 100 µM against EGFR. The concentration for 50% growth inhibition (GI50) in the test with CDK2 (human) [1], in the test with CDK2 (human) [2] (hct-116) and with CDK2 (human) [2] (snu638) was more than 100 µM throughout.

For `OCCNc1nc(Nc2cccc(Br)c2)c2cn[nH]c2n1`, the values for the IC50 at CDK2 and on EGFR were 8.1 µM and more than 100 µM, respectively. Also, the results for the GI50 with CDK2 (human) [1], with CDK2 (human) [2] (hct-116) and with CDK2 (human) [2] (snu638) were more than 100 µM, more than 100 µM and 69.2 µM, respectively.

On to `CC(C)n1ncc2c(NCc3ccc(N)cc3)nc(NCCO)nc21`, for which the IC50 against CDK2 and on EGFR was more than 100 µM in each case. In addition, the concentration for 50% growth inhibition (GI50) in the test with CDK2 (human) [1] is 55.3 µM; in the test with CDK2 (human) [2] (hct-116), more than 100 µM; with CDK2 (human) [2] (snu638) it was 38.2 µM.

As to `Cn1ncc2c(Nc3cccc(F)c3)nc(N(CCO)CCO)nc21`, the IC50 at CDK2 came out at 36.3 µM; at EGFR, 29.5 µM. The 50% growth inhibitory concentration (GI50) with CDK2 (human) [1] came to 3.94 µM; with CDK2 (human) [2] (hct-116), 8.89 µM; in the test with CDK2 (human) [2] (snu638), 2.56 µM.

On to `Cn1ncc2c(NCc3ccc(N)cc3)nc(NCCO)nc21`, for which the IC50 at CDK2 and against EGFR was more than 100 µM throughout. The GI50 with CDK2 (human) [1] was 58.9 µM; with CDK2 (human) [2] (hct-116) it was more than 100 µM; with CDK2 (human) [2] (snu638), 96.8 µM.

Take `Cn1ncc2c(NCc3ccccc3)nc(NCCO)nc21`: the concentration for half-maximal inhibition (IC50) on CDK2 and against EGFR was more than 100 µM each time. The concentration for 50% growth inhibition (GI50) with CDK2 (human) [1] is 42.7 µM; in the test with CDK2 (human) [2] (hct-116), more than 100 µM; with CDK2 (human) [2] (snu638), 37.1 µM.

On to `COc1cccc(Nc2nc(N(CCO)CCO)nc3c2cnn3C)c1`, for which the IC50 at CDK2 was 57.5 µM; on EGFR it was more than 100 µM. The GI50 with CDK2 (human) [1] stood at 12.9 µM; in the test with CDK2 (human) [2] (hct-116), 17.2 µM; with CDK2 (human) [2] (snu638) it was 10.5 µM.

As to `Cn1ncc2c(Nc3cccc(Br)c3)nc(N(CCO)CCO)nc21`, the IC50 against CDK2 and at EGFR was more than 100 µM each time. For the same compound, the GI50 with CDK2 (human) [1] worked out at 2.94 µM; in the test with CDK2 (human) [2] (hct-116), 16.6 µM; with CDK2 (human) [2] (snu638), 6.2 µM.

As for `OCCNc1nc(Nc2cccc(F)c2)c2cn[nH]c2n1`, the concentration for half-maximal inhibition (IC50) came to 0.5 µM against CDK2 and 66.1 µM at EGFR. Also, the values for the 50% growth inhibitory concentration (GI50) with CDK2 (human) [1], in the test with CDK2 (human) [2] (hct-116) and with CDK2 (human) [2] (snu638) were 28.9 µM, more than 100 µM and more than 100 µM, respectively.

Take `CC(C)n1ncc2c(Nc3cccc(F)c3)nc(NCCO)nc21`: the IC50 against CDK2 was 49 µM; on EGFR, more than 100 µM. Also, the GI50 is 7.8 µM with CDK2 (human) [1], 19.3 µM with CDK2 (human) [2] (hct-116) and 7.57 µM with CDK2 (human) [2] (snu638).

Take `Cn1ncc2c(NCc3ccc([N+](=O)[O-])cc3)nc(NCCO)nc21`: the values for the IC50 at CDK2 and at EGFR were 17.8 µM and more than 100 µM, respectively. For the same compound, the figures for the 50% growth inhibitory concentration (GI50) with CDK2 (human) [1], with CDK2 (human) [2] (hct-116) and with CDK2 (human) [2] (snu638) were 23.4 µM, 48.5 µM and 24.9 µM, respectively.

As to `CC(C)n1ncc2c(Nc3cccc(F)c3)nc(N(CCO)CCO)nc21`, the half-inhibitory concentration (IC50) is 47.9 µM against CDK2 and more than 100 µM on EGFR. The GI50 is 6.25 µM in the test with CDK2 (human) [1], 10.9 µM with CDK2 (human) [2] (hct-116) and 7.95 µM with CDK2 (human) [2] (snu638).

With `Cn1ncc2c(NCc3ccccc3)nc(N(CCO)CCO)nc21`, the IC50 was more than 100 µM against CDK2 and 77.6 µM against EGFR. Moreover, the results for the concentration for 50% growth inhibition (GI50) with CDK2 (human) [1], with CDK2 (human) [2] (hct-116) and in the test with CDK2 (human) [2] (snu638) were 24.3 µM, 53.4 µM and 25.3 µM, respectively.

On to `COc1cccc2c1C(=O)c1c(O)c3c(c(O)c1C2=O)C[C@@](O)(C(=O)CO)CC3O[C@H]1C[C@H](N)[C@H](O)[C@H](C)O1` (some centres not stated), for which the figures for the GI50 with CDK2 (human) [1] and with CDK2 (human) [2] (hct-116) were 0.18 µM and 0.13 µM, respectively.

As to `COc1cccc(Nc2nc(N(CCO)CCO)nc3c2cnn3C(C)C)c1`, the values for the 50% inhibitory concentration (IC50) against CDK2 and at EGFR were 66 µM and more than 100 µM, respectively. The values for the 50% growth inhibitory concentration (GI50) with CDK2 (human) [1], in the test with CDK2 (human) [2] (hct-116) and with CDK2 (human) [2] (snu638) were 4.43 µM, 12.6 µM and 7.92 µM, respectively.

For the compound `OCCN(CCO)c1nc(NCc2ccccc2)c2cn[nH]c2n1`, the IC50 against CDK2 was 37.2 µM; against EGFR it was 55 µM. In addition, the 50% growth inhibitory concentration (GI50) with CDK2 (human) [1] is more than 100 µM; with CDK2 (human) [2] (hct-116), 93.6 µM; with CDK2 (human) [2] (snu638) it was 29 µM.

As for `Cn1ncc2c(Nc3cccc(F)c3)nc(NCCO)nc21`, the IC50 against CDK2 is 21.4 µM; against EGFR it was more than 100 µM. Further, the concentration for 50% growth inhibition (GI50) with CDK2 (human) [1] was found to be 16.3 µM; in the test with CDK2 (human) [2] (hct-116), 28.2 µM; in the test with CDK2 (human) [2] (snu638) it was 15.8 µM.

As for `CC(C)n1ncc2c(NCc3ccccc3)nc(N(CCO)CCO)nc21`, the IC50 against CDK2 and against EGFR was more than 100 µM throughout. Besides, the GI50 was 21.9 µM in the test with CDK2 (human) [1], 47.7 µM with CDK2 (human) [2] (hct-116) and 26.1 µM in the test with CDK2 (human) [2] (snu638).

As to `CC(C)n1ncc2c(NCc3ccccc3)nc(NCCO)nc21`, the IC50 at CDK2 and against EGFR was more than 100 µM in each case. In addition, the GI50 in the test with CDK2 (human) [1] is 35.6 µM; with CDK2 (human) [2] (hct-116) it was 57.6 µM; with CDK2 (human) [2] (snu638), 25.2 µM.

In the case of `CC(C)n1ncc2c(Nc3cccc(Br)c3)nc(N(CCO)CCO)nc21`, the IC50 against CDK2 was 29.5 µM; at EGFR, more than 100 µM. In addition, the GI50 in the test with CDK2 (human) [1] came out at 2.58 µM; in the test with CDK2 (human) [2] (hct-116), 5.06 µM; with CDK2 (human) [2] (snu638), 4.1 µM.

On to `COc1cccc(Nc2nc(NCCO)nc3c2cnn3C(C)C)c1`, for which the IC50 against CDK2 and on EGFR was more than 100 µM each time. The figures for the concentration for 50% growth inhibition (GI50) with CDK2 (human) [1], in the test with CDK2 (human) [2] (hct-116) and with CDK2 (human) [2] (snu638) were 13.1 µM, 21.4 µM and 7.55 µM, respectively.

Consider `OCCN(CCO)c1nc(Nc2cccc(F)c2)c2cn[nH]c2n1`, for which the IC50 against CDK2 was 0.9 µM; at EGFR, more than 100 µM. Besides, the figures for the concentration for 50% growth inhibition (GI50) with CDK2 (human) [1], in the test with CDK2 (human) [2] (hct-116) and with CDK2 (human) [2] (snu638) were 54.3 µM, more than 100 µM and more than 100 µM, respectively.

For `COc1cccc(Nc2nc(NCCO)nc3[nH]ncc23)c1`, the half-maximal inhibitory concentration (IC50) was 3.1 µM against CDK2 and more than 100 µM against EGFR. The figures for the GI50 with CDK2 (human) [1], with CDK2 (human) [2] (hct-116) and in the test with CDK2 (human) [2] (snu638) were more than 100 µM, 38.2 µM and 17.1 µM, respectively.

These data come from the Kinase Knowledgebase extract (Sharma et al. 2016).
